Literature values as cited in publication PMC8674003 (CPT: Pharmacometrics & Systems Pharmacology, 2021).
Positions of bridges follow the written chain, without caps; N, C: chain ends. Non-standard residues stand in square brackets, D forms with d. Residues, ends and D or L forms follow the SMILES beside them. *: point of attachment. X1 = CC[C@H](C)CCCCC(=O)*; Dab = NCC[C@H](N)C(=O)O

Assays:
[1] = IV
[2] = components administered individually to Sprague-Dawley rats
[3] = M4 (Wang et al.), 2 CMT, Phoenix NLME (7.0), 46 patients

Q, intercompartmental clearance [1, 3] [L/h] | V1, typical volume of central compartment [1, 3] [L] | V2, typical volume of peripheral compartment [1, 3] [L] | V, volume of distribution ([1]; M7 (Yu et al.), 1 CMT, NONMEM (7.4), 32 patients) [L] | Plasma protein binding, B1 compared with B2 [2] | Structure (SMILES)
13.52 | 6.22 | 11.92 | 20.5 |  | CC[C@H](C)CCCCC(=O)N[C@@H](CCN)C(=O)N[C@H](C(=O)N[C@@H](CCN)C(=O)N[C@H]1CCNC(=O)[C@H]([C@@H](C)O)NC(=O)[C@H](CCN)NC(=O)[C@H](CCN)NC(=O)[C@H](CC(C)C)NC(=O)[C@@H](Cc2ccccc2)NC(=O)[C@H](CCN)NC1=O)[C@@H](C)O [polymyxin B, Polymyxin B] (X1-[Dab]T[Dab][Dab][Dab][dF]L[Dab][Dab]T; lactam 4-C)
 |  |  |  | higher compared with B2 | CC[C@H](C)CCCCC(=O)N[C@@H](CCN)C(=O)N[C@H](C(=O)N[C@@H](CCN)C(=O)N[C@H]1CCNC(=O)[C@H]([C@@H](C)O)NC(=O)[C@H](CCN)NC(=O)[C@H](CCN)NC(=O)[C@H](CC(C)C)NC(=O)[C@@H](Cc2ccccc2)NC(=O)[C@H](CCN)NC1=O)[C@@H](C)O [polymyxin B1] (X1-[Dab]T[Dab][Dab][Dab][dF]L[Dab][Dab]T; lactam 4-C)
